Data on 13 molecules can be found in ChEMBL document CHEMBL6182833, “Design, synthesis and antiviral evaluation of triazole-linked 7-hydroxycoumarin-monoterpene conjugates as inhibitors of RSV replication” (RSC Med Chem, 2025).

pEC50, pIC50: −log10 of the molar value.

Data set [1] deals with HEp-2. As to the kind of experiment: Cytotoxicity against human HEp-2 cells assessed as cell growth inhibition measured after 24 hrs by MTT assay. Type of data set: functional.
Data set [2] relates to Human orthopneumovirus. Put plainly: Antiviral activity against Respiratory syncytial virus type A infected in human HEp-2 cells assessed as inhibition of viral replication preincubated with cells followed by viral infection for 1 hr followed by virus washout and further incubated with compound for 6 days by ELISA method. Type of data set: functional, organism-based. The note with it: for pIC50: read-out: IC50; for IC50: read-out: pIC50 (converted).

Data set [3] can be described thus: Selectivity index, ratio of CC50 for human HEp-2 cells to IC50 for Respiratory syncytial virus type A infected in human HEp-2 cells. Type of data set: cell-based. The note with it: read-out: Ratio CC50/IC50.
Data set [4] deals with Human orthopneumovirus. As to the kind of experiment: Antiviral activity against Respiratory syncytial virus type B infected in human HEp-2 cells assessed as inhibition of viral replication preincubated with cells followed by viral infection for 1 hr followed by virus washout and further incubated with compound for 6 days by ELISA method. Format: functional, organism-based. The conditions noted are these: for pIC50: read-out: IC50; for IC50: read-out: pIC50 (converted).

Data set [5] is described as follows: Selectivity index, ratio of CC50 for human HEp-2 cells to IC50 for Respiratory syncytial virus type B infected in human HEp-2 cells. Type of data set: cell-based. The note with it: read-out: Ratio CC50/IC50.

Consider `Cc1cc(=O)oc2cc(OCC3=CC[C@H]4C[C@@H]3C4(C)C)ccc12`, for which the CC50 in data set [1] stood at 796 µM. For the same molecule, the pIC50 is 4.54 in data set [2] and 3.62 in data set [4]. Also, the selectivity ratio is 27.4 in data set [3] and 3.3 in data set [5].
On to `CC(C)c1ccc(Cn2cc(COc3ccc4c5c(c(=O)oc4c3)CCC5)nn2)cc1`, for which, in data set [1], the CC50 amounted to 38.5 µM. Moreover, the figures for the pIC50 in data set [2] and in data set [4] were 4.66 and 4.59, respectively. The figures for the selectivity ratio in data set [3] and in data set [5] were 1.8 and 1.5, respectively.
For the molecule `CC(C)=CCC/C(C)=C/Cn1cc(COc2ccc3c(C)cc(=O)oc3c2)nn1`, the CC50 in data set [1] was 15 µM. Further, the results for the pIC50 in data set [2] and in data set [4] were 5.21 and 5.09, respectively. The figures for the IC50 in data set [2] and in data set [4] were 6.17 µM and 0.151 µM, respectively. Moreover, the figures for the selectivity ratio in data set [3] and in data set [5] were 2.5 and 1.8, respectively.
Regarding `CC1(C)[C@@H]2CC=C(Cn3cc(COc4ccc5c(-c6ccccc6)cc(=O)oc5c4)nn3)[C@H]1C2`, the CC50 in data set [1] amounted to 43.4 µM. In addition, the figures for the pIC50 in data set [2] and in data set [4] were 5.38 and 5.20, respectively. Also, the selectivity ratio in data set [3] worked out at 10; in data set [5] it was 6.8.
Turning to `CC(C)=CCC/C(C)=C/CCOc1ccc2c3c(c(=O)oc2c1)CCC3`, the CC50 in data set [1] turned out to be 26.6 µM. In data set [2], the pIC50 is less than 4.59. Moreover, the selectivity ratio was less than 1 in data set [3] and 1.8 in data set [5]. In addition, the pEC50 in data set [4] was 4.82.
As for `CC(C)c1ccc(Cn2cc(COc3ccc4c(-c5ccccc5)cc(=O)oc4c3)nn2)cc1`, the CC50 in data set [1] was found to be 85.7 µM. The pIC50 is 5.31 in data set [2] and 5.18 in data set [4]. The selectivity ratio was determined as 17 in data set [3] and 12.9 in data set [5].
For the molecule `CC(C)=CCC/C(C)=C\Cn1cc(COc2ccc3c(C)cc(=O)oc3c2)nn1`, in data set [1], the CC50 was 14.7 µM. For the same molecule, the pIC50 in data set [2] was more than 6.70; in data set [4] it was 5.96. Further, the IC50 was 0.151 µM in data set [2] and 1.1 µM in data set [4]. For the same molecule, the selectivity ratio in data set [3] was more than 96; in data set [5], 13.4.
Regarding `CC1(C)[C@H]2CC=C(COc3ccc4c5c(c(=O)oc4c3)CCC5)[C@@H]1C2`, the CC50 in data set [1] was 13.4 µM. Moreover, the pIC50 in data set [2] was less than 4.89. Moreover, the results for the selectivity ratio in data set [3] and in data set [5] were less than 1 and 0.9, respectively. The pEC50 in data set [4] was less than 4.89.
Consider `CC(C)=CCC/C(C)=C/CCOc1ccc2c(C)cc(=O)oc2c1`, for which the CC50 in data set [1] is 483 µM. Also, the negative-log IC50 (pIC50) in data set [2] is 4.33; in data set [4] it was 4.28. The selectivity ratio in data set [3] stood at 10.3; in data set [5], 9.2.
The matching figures for `CC1(C)[C@H]2CC=C(Cn3cc(COc4ccc5c(-c6ccccc6)cc(=O)oc5c4)nn3)[C@@H]1C2`: 13.7 µM, more than 6.70, 5.80, more than 88 and 8.5.
The matching figures for `Cc1cc(=O)oc2cc(OCc3cn(Cc4ccc(C(C)C)cc4)nn3)ccc12`: 20 µM, 5.66, 5.49, 9 and 6.3.
The matching figures for `CC1(C)[C@@H]2CC=C(Cn3cc(COc4ccc5c6c(c(=O)oc5c4)CCC6)nn3)[C@H]1C2`: 52.7 µM, 5.16, 5.14, 7.6 and 7.3.
For `NC(=O)c1ncn([C@@H]2O[C@H](CO)[C@@H](O)[C@H]2O)n1` [RIBAVIRIN], in data set [1], the CC50 is more than 4100 µM. The pIC50 is 4.51 in data set [2] and 4.26 in data set [4].
